Assays:
[1] = tested on: reverse transcriptase in Rauscher murine leukemia virus; details: in vitro; cited from earlier work
[2] = in vivo, po; cited from earlier work
[3] = format: physicochemical
Description: The material forms white to pale beige monoclinic crystals with unit cell parameters of about a=7.899(1)Å, b=8.765(1)Å, c=31.626(2)Å, beta=103.253(7) degrees, V=2131 Å^3, based on powder x-ray diffraction analysis. The solubility of this compound is measured as about 5 millimolar in distilled deionized water at 23° C. Crystallization from other solvents or under other conditions may produce other crystal structures. Under some conditions, water or other solvents may also be incorporated into the structure. […] About 5.5 grams of powdered anhydrous sodium carbonate are added, and stirring continues for additional 12 minutes. […] The remaining crystalline solid is the 3:1 maltol gallium composition. […] The solubility of this composition is measured as about 24 millimolar in distilled deionized water at 23° C.

HIV-1 = details: at subinhibitory concentrations; cited from earlier work

[Ga] [Gallium]
Inhibition of reverse transcriptase [1]: shown in vitro to inhibit the enzyme reverse transcriptase

CCc1occc(=O)c1O [ethyl maltol, 3-hydroxy-2-ethyl-4-pyrone]
Toxicity when taken orally [2]: very low toxicities

CCc1occc(=O)c1[O-].CCc1occc(=O)c1[O-].CCc1occc(=O)c1[O-].[Ga+3] [gallium ethyl maltolate, tris(3-hydroxy-2-ethyl-4H-pyran-4-onato)gallium]
Solubility [3]: about 5 millimolar

O=[N+]([O-])[O-].O=[N+]([O-])[O-].O=[N+]([O-])[O-].[Ga+3] [gallium nitrate]
Effect on inhibitory effects of nucleoside analogs (HIV-1): potentiated the inhibitory effects of zidovudine, azidothymidine (AZT), dideoxy inosine (ddI), and dideoxy cytosine (ddC)

Cc1occc(=O)c1O [maltol, 3-hydroxy-2-methyl-4-pyrone]
Toxicity when taken orally [2]: very low toxicities
